Converted amounts (≈) assume the structure as drawn. “And” between values parts separate entries of the source, which are not always exact repeats. Identical values can stand only once. Like-named read-outs stand apart in the source and are kept apart here.
Experiments:
Format in all cases: cell-based
Serratia marcescens = system: Serratia marcescens
Pseudomonas aeruginosa = system: Pseudomonas aeruginosa
Listeria monocytogenes = system: Listeria monocytogenes
Bacillus cereus = system: Bacillus cereus
Streptococcus pneumoniae = assay: MIC100, clinical isolates of hospital-acquired pathogens (Table 7)
Streptococcus pyogenes = assay: as above; details: Mueller Hinton+2-5% lysed horse blood, in µg/mL
Enterobacter cloacae = system: Enterobacter cloacae
Bacillus globigii = system: Bacillus globigii
[1] = system: Staphylococcus saprophyticus
Moraxella catarrhalis = system: Moraxella catarrhalis
Neisseria sicca = system: Neisseria sicca
Enterococcus faecalis [2] = system: Enterococcus faecalis
B. anthracis = assay: microbe, parasite or virus in culture; details: Bacillus anthracis
Enterococcus faecalis [3] = assay: MIC100, clinical isolates of hospital-acquired pathogens (Table 7); details: control strain ATCC 29212
Klebsiella aerogenes = system: Klebsiella aerogenes

NCCc1cc(Br)cc(C#Cc2cccc(C#Cc3cc(Br)cc(CCN)c3)c2)c1 [Compound 3]
MIC100 Serratia marcescens (Serratia marcescens): 3.4 µg/mL (≈ 6.51 µM)
MIC100 Pseudomonas aeruginosa (Pseudomonas aeruginosa): 3.4 µg/mL (≈ 6.51 µM)
MIC100 Listeria monocytogenes (Listeria monocytogenes): 1.7 µg/mL (≈ 3.25 µM)
MIC100 Bacillus cereus (Bacillus cereus): 1.7 µg/mL (≈ 3.25 µM)
mic (MIC100) Streptococcus pneumoniae (Streptococcus pneumoniae; clinical isolates, no phenotype given, Mueller Hinton+2-5% lysed horse blood, in µg/mL): 2
mic (MIC100) Streptococcus pneumoniae ATCC 49619 (Streptococcus pneumoniae; control strain ATCC 49619): 2 µg/mL
mic (MIC100) Streptococcus pneumoniae PEN-R (Streptococcus pneumoniae; penicillin-resistant clinical isolates, Mueller Hinton+2-5% lysed horse blood, in µg/mL): 2 and 1
mic (MIC100) Streptococcus pyogenes (Streptococcus pyogenes): 2 and 4
MIC100 Enterobacter cloacae (Enterobacter cloacae): 1.7 µg/mL (≈ 3.25 µM)
MIC100 Bacillus globigii (Bacillus globigii): 3.4 µg/mL (≈ 6.51 µM)
MIC100 Staphylococcus saprophyticus [1]: 0.8 µg/mL (≈ 1.53 µM)
MIC100 Moraxella catarrhalis (Moraxella catarrhalis): 0.84 µg/mL (≈ 1.61 µM)
MIC100 Neisseria sicca (Neisseria sicca): 3.4 µg/mL (≈ 6.51 µM)
MIC100 Enterococcus faecalis (Enterococcus faecalis [2]): 0.84 µg/mL (≈ 1.61 µM)
MIC (B. anthracis; read-out: MIC100 B. anthracis 127): 1 µg/mL (≈ 1.91 µM)
MIC (B. anthracis; read-out: MIC100 B. anthracis 1099): 1 µg/mL (≈ 1.91 µM)
MIC (B. anthracis; read-out: MIC100 B. anthracis 7611R): 2 µg/mL (≈ 3.83 µM)
MIC (B. anthracis; read-out: MIC100 B. anthracis A3): 1 µg/mL (≈ 1.91 µM)
MIC (B. anthracis; read-out: MIC100 B. anthracis A19): 1 µg/mL (≈ 1.91 µM)
MIC (B. anthracis; read-out: MIC100 B. anthracis A58): 1 µg/mL (≈ 1.91 µM)
MIC (B. anthracis; read-out: MIC100 B. anthracis A60): 1 µg/mL (≈ 1.91 µM)
MIC (B. anthracis; read-out: MIC100 B. anthracis A73): 1 µg/mL (≈ 1.91 µM)
MIC (B. anthracis; read-out: MIC100 B. anthracis A74): 2 µg/mL (≈ 3.83 µM)
MIC (B. anthracis; read-out: MIC100 B. anthracis AC1): 1 µg/mL (≈ 1.91 µM)
MIC (B. anthracis; read-out: MIC100 B. anthracis RA3R): 1 µg/mL (≈ 1.91 µM)
MIC (B. anthracis; read-out: MIC100 B. anthracis Vollum): 2 µg/mL (≈ 3.83 µM)
mic (MIC100) Enterococcus faecalis ATCC 29212 (Enterococcus faecalis [3]): 1 µg/mL
MIC100 Klebsiella aerogenes (Klebsiella aerogenes): 3.4 µg/mL (≈ 6.51 µM)

Source: US8716530B2, “Facially amphiphilic polyaryl and polyarylalkynyl polymers and oligomers and uses thereof” (The Trustess of the University of Pennsylvania, priority 2004, dated 2014)
